Data as given in US7067146B2, “Food compositions and methods of preparing the same” (Eritocap Oy, priority 1999, dated 2006).

Key:
Solubility = type: physicochemical
[1] = system: cholesterol in blood serum; details: Merck Index, 12th Edition; cited from earlier work
[2] = system: cholesterol in blood serum; assay: Blood serum cholesterol reduction by eritadenine; type: in vivo, human
Excerpt: As regards the therapeutic action of eritadenine it should be noted that it acts endogenously in a dose-dependent manner and can be used as a functional food component in small doses for reducing the total cholesterol of normal human beings. By contrast, existing methods provide for food components having an exogenous effect on the cholesterol balance and these dietary components therefore have to be used in extremely large doses in comparison to eritadenine. […] The present invention makes it possible to produce a functional food component which acts in a druglike manner influencing human phospholipidic metabolic step sequences, still preserving the true features of a functional food component. As mentioned above, eritadenine has the additive effects of not only dose-dependent, endogenous cholesterol-depression but also therapeutic effects like endogenous linoleic acid formation and blood plasma viscosity reduction.
It acts in a drug-like manner, inhibiting the endogenous synthesis of cholesterol metabolism and the enterohepatic fat circle. d-eritadenine is effective in very low absorbed doses, at 1 ppm+-level, ensuring safety and essential metabolic step preservation.
Thus, the addition of eritadenine, especially d-eritadenine, to an exogenously acting existing functional food will more than double the cholesterol-depressing effect due to enterohepatic and exterohepatic multiplicatory effects. Mathematically consecutive 10% reductions would give […] total reduction, and consecutive 15% reductions would give 28% total reduction, by the present invention, due to the feedback inhibition created by the simultaneous exogenous and endogenous actions of the food components, a greater decrease of the cholesterol level will be achieved. The food compositions according to the present invention may therefore comprise a (conventional) food component having an exterohepatic cholesterol depressing effect. Such a food component can be selected from the group of fibers, chitosan, tocotrienols, plant sterols, stanol esters and sitostanol esters. […]

SAH hydrolase = SAH hydrolase (Homo sapiens, UniProt P23526)
SAH hydrolase, sequence (P23526 whole entry): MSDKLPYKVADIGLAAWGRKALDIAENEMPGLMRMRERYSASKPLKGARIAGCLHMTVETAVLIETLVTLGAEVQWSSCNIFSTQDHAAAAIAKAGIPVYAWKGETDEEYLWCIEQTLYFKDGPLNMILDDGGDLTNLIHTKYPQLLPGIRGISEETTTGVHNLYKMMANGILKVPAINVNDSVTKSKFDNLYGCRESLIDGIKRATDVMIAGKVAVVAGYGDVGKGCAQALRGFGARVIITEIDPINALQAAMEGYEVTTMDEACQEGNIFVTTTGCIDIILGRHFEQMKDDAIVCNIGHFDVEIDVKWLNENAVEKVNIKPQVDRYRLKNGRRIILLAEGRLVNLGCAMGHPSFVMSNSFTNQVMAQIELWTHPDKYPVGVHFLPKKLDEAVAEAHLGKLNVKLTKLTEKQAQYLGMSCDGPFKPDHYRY
Excerpt: It is possible to achieve favourable changes in the blood plasma cholesterol pattern by reducing the molar ratio of total cholesterol/phospholipid ratio and/or changing the phospolipid molar ratio of PC/PE and/or inhibiting enzymatically controlled reactions where PC and PE is directly or indirectly via the SAM/SAH cycle involved. The following theory has been formulated: • Step 1: Total PL and PL (phospholipids) composition may be changed by kinetics of the SAM and SAH cycle. • Step 2: SAM and SAH concentrations are inhibited/stimulated by intervening in the methionine and cysteine metabolism • Step 3: In this metabolism SAH degradation to adenosine and homocysteine is an enzymatic reaction catalysed by SAH hydrolase. By inhibiting partially, not totally, SAH hydrolase, the concentration of SAH will rise affecting the SAM/SAH ratio and step 1 will be executed.
Eritadenine has been tested for use in the above model.

Row | Compound | solubility in fats (Solubility) | effect on concentration of cholesterol in blood serum [1] | reduction of cholesterol ([2]; 5 to 50 mg as dose response, depending on the dietary cholesterol amount) | effective absorbed dose level ([2]; absorbed dose) | relative efficiency among eritadenine isomers ([2]; compared with l-eritadenine (2S,3S) and threo isomers) | dose needed for SAH hydrolase inhibition (SAH hydrolase) | extent of SAH hydrolase inhibition (SAH hydrolase) | speed of SAH hydrolase inhibition (SAH hydrolase)
1 | Nc1ncnc2c1ncn2C[C@@H](O)[C@@H](O)C(=O)O [Eritadenine] | soluble in fats | capable of reducing the concentration of cholesterol in blood serum | – | – | – | – | – | –
2 | Nc1ncnc2c1ncn2C[C@@H](O)[C@@H](O)C(=O)O [d-eritadenine, 2(R), 3(R)-dihydroxy-4-(9-adenyl)butyric acid] | – | – | > 20% | ≥ 1 ppm | most efficient | inhibits already in small doses | inhibits partially, no total blocking | rapid
